Measured values: PubChem BioAssay AID256 (DTP/NCI, 2004)
Values joined by “and” are separate entries in the source; they are usually repeats but may differ in a detail not shown here. Equal entries are not always repeated. Inconclusive results and toxic doses are left out. Rule for the calls: active = survival T/C of 150% or more; inactive = T/C below 125% in these data.

Tested on: CD2F1 mice, L1210 leukemia ip, survival T/C
Assay: NCI In Vivo Anticancer Drug Screen. Data for tumor model L1210 Leukemia (intraperitoneal) in CD2F1 (CDF1) mice
Details: higher = longer survival
Method in brief: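 Activity against a transplanted murine tumor was judged by comparing the compound group with a vehicle group. The outcome in the treated animals was divided by that in the controls.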

[1] = endpoint: mean survival time, dose: 100.0 mg/kg/injection, schedule: Q04DX003 (ip), vehicle: saline with Tween-80
[2] = endpoint: mean survival time, dose: 200.0 mg/kg/injection, schedule: Q04DX003 (ip), vehicle: saline with Tween-80
[3] = endpoint: mean survival time, dose: 400.0 mg/kg/injection, schedule: Q04DX003 (ip), vehicle: saline with Tween-80

Measured: T/C

Cc1ccc(-n2c(=S)[nH]c3ccccc3c2=O)cc1F
inactive: endpoint: mean survival time, dose: 100.0 mg/kg/injection, schedule: Q01DX001 (ip), vehicle: saline with Tween-80 92 % of control | endpoint: mean survival time, dose: 100.0 mg/kg/injection, schedule: Q01DX009 (ip), vehicle: saline with Tween-80 88 % of control | endpoint: mean survival time, dose: 200.0 mg/kg/injection, schedule: Q01DX001 (ip), vehicle: saline with Tween-80 92 % of control | endpoint: mean survival time, dose: 200.0 mg/kg/injection, schedule: Q01DX009 (ip), vehicle: saline with Tween-80 88 % of control | endpoint: mean survival time, dose: 400.0 mg/kg/injection, schedule: Q01DX001 (ip), vehicle: saline with Tween-80 89 % of control | endpoint: mean survival time, dose: 400.0 mg/kg/injection, schedule: Q01DX009 (ip), vehicle: saline with Tween-80 93 % of control

CN(C)CCCN=c1c2ccccc2n(C)c2[nH]c(=O)n(C)c(=O)c12
inactive: endpoint: median survival time, dose: 3.75 mg/kg/injection, schedule: Q01DX005 (ip), vehicle: saline 105 % of control | endpoint: median survival time, dose: 7.5 mg/kg/injection, schedule: Q01DX005 (ip), vehicle: saline 109 % of control | endpoint: median survival time, dose: 10.8 mg/kg/injection, schedule: Q01DX005 (ip), vehicle: saline 107 % of control | endpoint: median survival time, dose: 15.0 mg/kg/injection, schedule: Q01DX005 (ip), vehicle: saline 111 % of control and 112 % of control | endpoint: median survival time, dose: 18.0 mg/kg/injection, schedule: Q01DX005 (ip), vehicle: saline 123 % of control | endpoint: median survival time, dose: 30.0 mg/kg/injection, schedule: Q01DX005 (ip), vehicle: saline 116 % of control and 124 % of control | endpoint: median survival time, dose: 50.0 mg/kg/injection, schedule: Q01DX005 (ip), vehicle: saline 119 % of control | endpoint: median survival time, dose: 60.0 mg/kg/injection, schedule: Q01DX005 (ip), vehicle: saline 120 % of control and 101 % of control | endpoint: median survival time, dose: 120.0 mg/kg/injection, schedule: Q01DX005 (ip), vehicle: saline 119 % of control

Nc1ccc(Br)cc1
inactive: [1] 97 % of control | [2] 100 % of control | [3] 87 % of control

O=C(c1cccnc1)C1Cc2ccccc2C1=O (stereo unspecified)
inactive: endpoint: mean survival time, dose: 100.0 mg/kg/injection, schedule: Q01DX009 (ip), vehicle: saline sonified 102 % of control | endpoint: mean survival time, dose: 200.0 mg/kg/injection, schedule: Q01DX009 (ip), vehicle: saline sonified 96 % of control | endpoint: mean survival time, dose: 400.0 mg/kg/injection, schedule: Q01DX009 (ip), vehicle: saline sonified 94 % of control

CCCCNC(=O)/C=C\C(=O)O
inactive: [1] 97 % of control | [2] 100 % of control | [3] 100 % of control

S=C1NC(/C=C/c2ccccc2)Nc2ccccc21 (stereo unspecified)
inactive: [1] 91 % of control | [2] 87 % of control
